Experimental data: patent publication US8802597B2, “Herbicidal pyrimidines” (E I du Pont de Nemours and Company, priority 2003, dated 2014)
Where two headings read alike, the source gives them in different places.

How the values were obtained:
Format in all cases: in vivo
[1] = tested on: umbrella sedge (Cyperus difformis); assay: Test B flooded paddy test; details: Flood, scale 0 to 100
Summary of the method: (§1)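 Plants were grown to the 2-leaf stage before treatment, then kept in a greenhouse for 13 to 15 days. Injury was rated visually against untreated controls on a 0 to 100 scale, where 0 is no effect and 100 is complete control.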

[2] = tested on: barnyardgrass (Echinochloa crus-galli); assay: Test B flooded paddy test; details: Flood
Summary of the method: as §1

[3] = tested on: rice (Oryza sativa); assay: Test B flooded paddy test; details: Flood, scale 0 to 100
Summary of the method: as §1

[4] = tested on: duck salad (Heteranthera limosa); assay: Test B flooded paddy test; details: Flood, scale 0 to 100
Summary of the method: as §1

[5] = tested on: cocklebur (Xanthium strumarium); assay: Test B pre/postemergence; details: for pest or weed control at 62 g/ha: Xanthium strumarium
Summary of the method: (§2)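 Visual rating, 0 (no effect) to 100 (complete control) versus controls, taken 13–15 days after treatment in greenhouse. Compounds formulated in non-phytotoxic solvent plus surfactant; pre: sprayed after seeding; post: plants at 1- to 4-leaf stage, 2–18 cm.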

[6] = tested on: morningglory (Ipomoea coccinea); assay: Test B pre/postemergence; details: for pest or weed control at 62 g/ha: Ipomoea
Summary of the method: as §2

[7] = tested on: giant foxtail (Setaria faberii); assay: Test B pre/postemergence; details: for pest or weed control at 62 g/ha: Setaria faberi
Summary of the method: as §2

[8] = tested on: lambsquarters (Chenopodium album); assay: Test B pre/postemergence; details: for pest or weed control at 62 g/ha: Chenopodium album
Summary of the method: as §2

[9] = tested on: Surinam grass (Brachiaria decumbens); assay: Test B pre/postemergence; details: for pest or weed control at 62 g/ha: Urochloa decumbens
Summary of the method: as §2

[10] = tested on: pigweed (Amaranthus retroflexus); assay: Test B pre/postemergence; details: for pest or weed control at 62 g/ha: Amaranthus retroflexus
Summary of the method: as §2

[11] = tested on: barnyardgrass (Echinochloa crus-galli); assay: Test B pre/postemergence; details: for pest or weed control at 62 g/ha: Echinochloa crus-galli
Summary of the method: as §2

[12] = tested on: corn (Zea mays); assay: Test B pre/postemergence
Summary of the method: as §2

[13] = tested on: crabgrass (Digitaria sanguinalis); assay: Test B pre/postemergence; details: for pest or weed control at 62 g/ha: Digitaria sanguinalis
Summary of the method: as §2

[14] = tested on: wheat (Triticum aestivum); assay: Test B pre/postemergence; details: for plant injury at 62 g/ha: Triticum aestivum
Summary of the method: as §2

[15] = tested on: velvetleaf (Abutilon theophrasti); assay: Test B pre/postemergence; details: for pest or weed control at 62 g/ha: Abutilon theophrasti
Summary of the method: as §2

[16] = tested on: wild oat (Avena fatua); assay: Test B postemergence
Summary of the method: as §2

[17] = tested on: blackgrass (Alopecurus myosuroides); assay: Test B postemergence
Summary of the method: as §2

[18] = Postemergence, 62 g ai/ha, scale 0 to 100 (0 no effect, 100 complete control)
[19] = Postemergence, 500 g ai/ha, scale 0 to 100
[20] = Preemergence, 62 g ai/ha, scale 0 to 100, 0 no effect, 100 complete control
[21] = Preemergence, 500 g ai/ha, scale 0 to 100 (0 no effect, 100 complete control)
[22] = 62 g ai/ha, scale 0 to 100 (0 no effect, 100 complete control)
[23] = Postemergence, 125 g ai/ha, scale 0 to 100 (0 no effect, 100 complete control)
[24] = Preemergence, 125 g ai/ha, scale 0 to 100 (0 no effect, 100 complete control)
[25] = 125 g ai/ha, scale 0 to 100 (0 no effect, 100 complete control)

CCOC(=O)C(Cl)c1nc(C2CC2)nc(N)c1Br (stereo not drawn) [Compound 31]
90: Plant response rating, Cocklebur [5, 20] | Plant response rating, Morningglory [6, 20] | Plant response rating, Lambsquarters [8, 20] | Plant response rating, Pigweed [10, 20] | Velvetleaf plant response rating [15, 21]
20: Plant response rating, Rice ([3]; 1000 g ai/ha) | Plant response rating, Surinam Grass [9, 20] | Pigweed plant response rating [10, 18] | Plant response rating, Barnyardgrass [11, 20]
80: Plant response rating, Cocklebur [5, 19] | Foxtail, Giant plant response rating [7, 21] | Crabgrass plant response rating [13, 21] | Plant response rating, Velvetleaf [15, 20]
30: Plant response rating, Barnyardgrass ([2]; 1000 g ai/ha, scale 0 (no effect) to 100 (complete control)) | Plant response rating, Crabgrass [13, 19]
0: Plant response rating, Sedge, Umbrella ([1]; 1000 g ai/ha) | Foxtail, Giant plant response rating [7, 18] | Plant response rating, Foxtail, Giant [7, 19] | Surinam Grass plant response rating [9, 18] | Plant response rating, Surinam Grass [9, 19] | Barnyardgrass plant response rating [11, 18] | Plant response rating, Barnyardgrass [11, 19] | Corn plant response rating [12, 18] | Plant response rating, Corn [12, 19] | Plant response rating, Corn [12, 20] | Crabgrass plant response rating [13, 18] | Wheat plant response rating [14, 18] | Plant response rating, Wheat [14, 19] | Oat, Wild plant response rating [16, 22] | Plant response rating, Oat, Wild ([16]; 500 g ai/ha, scale 0 to 100) | Blackgrass plant response rating [17, 22] | Plant response rating, Blackgrass ([17]; 500 g ai/ha, scale 0 to 100)
70: Cocklebur plant response rating [5, 18] | Plant response rating, Morningglory [6, 19] | Plant response rating, Lambsquarters [8, 19] | Barnyardgrass plant response rating [11, 21] | Wheat plant response rating [14, 21]
60: Plant response rating, Ducksalad ([4]; 1000 g ai/ha) | Surinam Grass plant response rating [9, 21] | Plant response rating, Velvetleaf [15, 19]
100: Cocklebur plant response rating [5, 21] | Morningglory plant response rating [6, 21] | Lambsquarters plant response rating [8, 21] | Pigweed plant response rating [10, 21]
50: Morningglory plant response rating [6, 18] | Plant response rating, Pigweed [10, 19]
10: Plant response rating, Foxtail, Giant [7, 20] | Plant response rating, Crabgrass [13, 20] | Velvetleaf plant response rating [15, 18]
40: Lambsquarters plant response rating [8, 18] | Corn plant response rating [12, 21] | Plant response rating, Wheat [14, 20]

Nc1nc(C2CC2)nc(C(=O)[O-])c1Br.[Na+] [Compound 113, 6-amino-5-bromo-2-cyclopropyl-4-pyrimidinecarboxylic acid monosodium salt]
10%: plant injury at 62 g/ha ([12]; Zea mays, post-emergence, Postemergence, 62 g ai/ha, scale 0 to 100 (0 no effect, 100 complete control), read-out: Corn plant response rating) | plant injury at 62 g/ha ([14]; pre-emergence, Preemergence, 62 g ai/ha, scale 0 to 100 (0 no effect, 100 complete control), read-out: Plant response rating, Wheat)
40%: pest or weed control at 62 g/ha ([13]; pre-emergence, Preemergence, 62 g ai/ha, scale 0 to 100, 0 no effect, 100 complete control, read-out: Plant response rating, Crabgrass) | pest or weed control at 62 g/ha ([16]; Avena fatua, post-emergence, 62 g ai/ha, scale 0 to 100 (0 no effect, 100 complete control), read-out: Oat, Wild plant response rating)
70%: pest or weed control at 62 g/ha ([5]; pre-emergence, Preemergence, 62 g ai/ha, scale 0 to 100, 0 no effect, 100 complete control, read-out: Plant response rating, Cocklebur) | pest or weed control at 62 g/ha ([8]; pre-emergence, Preemergence, 62 g ai/ha, scale 0 to 100, 0 no effect, 100 complete control, read-out: Plant response rating, Lambsquarters) | pest or weed control at 62 g/ha ([10]; post-emergence, Postemergence, 62 g ai/ha, scale 0 to 100 (0 no effect, 100 complete control), read-out: Pigweed plant response rating) | pest or weed control at 62 g/ha ([10]; pre-emergence, Preemergence, 62 g ai/ha, scale 0 to 100, 0 no effect, 100 complete control, read-out: Plant response rating, Pigweed)
60: Plant response rating, Morningglory [6, 24] | Plant response rating, Surinam Grass [9, 24] | Plant response rating, Wheat [14, 24]
80%: pest or weed control at 62 g/ha ([8]; post-emergence, Postemergence, 62 g ai/ha, scale 0 to 100 (0 no effect, 100 complete control), read-out: Lambsquarters plant response rating) | pest or weed control at 62 g/ha ([15]; pre-emergence, Preemergence, 62 g ai/ha, scale 0 to 100, 0 no effect, 100 complete control, read-out: Plant response rating, Velvetleaf)
30%: pest or weed control at 62 g/ha ([9]; post-emergence, Postemergence, 62 g ai/ha, scale 0 to 100 (0 no effect, 100 complete control), read-out: Surinam Grass plant response rating) | plant injury at 62 g/ha ([14]; post-emergence, Postemergence, 62 g ai/ha, scale 0 to 100 (0 no effect, 100 complete control), read-out: Wheat plant response rating) | pest or weed control at 62 g/ha ([17]; Alopecurus myosuroides, post-emergence, 62 g ai/ha, scale 0 to 100 (0 no effect, 100 complete control), read-out: Blackgrass plant response rating)
80: Plant response rating, Cocklebur [5, 24] | Plant response rating, Lambsquarters [8, 24] | Surinam Grass plant response rating [9, 23] | Barnyardgrass plant response rating [11, 23] | Velvetleaf plant response rating [15, 23]
90%: pest or weed control at 62 g/ha ([5]; post-emergence, Postemergence, 62 g ai/ha, scale 0 to 100 (0 no effect, 100 complete control), read-out: Cocklebur plant response rating) | pest or weed control at 62 g/ha ([6]; post-emergence, Postemergence, 62 g ai/ha, scale 0 to 100 (0 no effect, 100 complete control), read-out: Morningglory plant response rating)
50%: pest or weed control at 62 g/ha ([6]; pre-emergence, Preemergence, 62 g ai/ha, scale 0 to 100, 0 no effect, 100 complete control, read-out: Plant response rating, Morningglory) | pest or weed control at 62 g/ha ([11]; post-emergence, Postemergence, 62 g ai/ha, scale 0 to 100 (0 no effect, 100 complete control), read-out: Barnyardgrass plant response rating)
20%: pest or weed control at 62 g/ha ([7]; post-emergence, Postemergence, 62 g ai/ha, scale 0 to 100 (0 no effect, 100 complete control), read-out: Foxtail, Giant plant response rating) | pest or weed control at 62 g/ha ([9]; pre-emergence, Preemergence, 62 g ai/ha, scale 0 to 100, 0 no effect, 100 complete control, read-out: Plant response rating, Surinam Grass) | pest or weed control at 62 g/ha ([13]; post-emergence, Postemergence, 62 g ai/ha, scale 0 to 100 (0 no effect, 100 complete control), read-out: Crabgrass plant response rating)
0%: pest or weed control at 125 g/ha ([1]; Cyperus difformis, 125 g ai/ha, read-out: Plant response rating, Sedge, Umbrella) | pest or weed control at 500 g/ha ([1]; Cyperus difformis, 500 g ai/ha, read-out: Plant response rating, Sedge, Umbrella) | pest or weed control at 125 g/ha ([2]; Echinochloa crus-galli, 125 g ai/ha, scale 0 to 100, read-out: Plant response rating, Barnyardgrass) | pest or weed control at 500 g/ha ([2]; Echinochloa crus-galli, 500 g ai/ha, scale 0 to 100, read-out: Plant response rating, Barnyardgrass) | plant injury at 125 g/ha ([3]; Oryza sativa, 125 g ai/ha, read-out: Plant response rating, Rice) | plant injury at 500 g/ha ([3]; Oryza sativa, 500 g ai/ha, read-out: Plant response rating, Rice) | pest or weed control at 125 g/ha ([4]; Heteranthera limosa, 125 g ai/ha, read-out: Plant response rating, Ducksalad) | pest or weed control at 500 g/ha ([4]; Heteranthera limosa, 500 g ai/ha, read-out: Plant response rating, Ducksalad) | pest or weed control at 62 g/ha ([7]; pre-emergence, Preemergence, 62 g ai/ha, scale 0 to 100, 0 no effect, 100 complete control, read-out: Plant response rating, Foxtail, Giant) | pest or weed control at 62 g/ha ([11]; pre-emergence, Preemergence, 62 g ai/ha, scale 0 to 100 (0 no effect, 100 complete control), read-out: Plant response rating, Barnyardgrass) | Corn plant response rating (crop injury, 0 = no effect, 100 = complete kill) at 62 g/ha ([12]; Zea mays, pre-emergence, Preemergence, 62 g ai/ha, scale 0 to 100, 0 no effect, 100 complete control)
90: Cocklebur plant response rating [5, 23] | Morningglory plant response rating [6, 23] | Lambsquarters plant response rating [8, 23] | Pigweed plant response rating [10, 23] | Plant response rating, Pigweed [10, 24] | Plant response rating, Velvetleaf [15, 24]
20: Plant response rating, Barnyardgrass [11, 24] | Plant response rating, Corn [12, 24]
60%: pest or weed control at 62 g/ha ([15]; post-emergence, Postemergence, 62 g ai/ha, scale 0 to 100 (0 no effect, 100 complete control), read-out: Velvetleaf plant response rating)
70: Plant response rating, Crabgrass [13, 24]
40: Corn plant response rating [12, 23] | Crabgrass plant response rating [13, 23] | Blackgrass plant response rating [17, 25]
10: Plant response rating, Foxtail, Giant [7, 24]
50: Foxtail, Giant plant response rating [7, 23] | Wheat plant response rating [14, 23] | Oat, Wild plant response rating [16, 25]
